Measured values: patent US20080213341A1, “Butyric Acid Esters of Carbohydrates and Carbohydrate Polyols” (priority 2005, published 2008)
Where two headings read alike, the source gives them in different places.

What was measured:
[1] = system: intestinal bacteria of the human large intestine; test: In vitro fermentation with intestinal bacteria of the human large intestine (feces suspension); assay type: in vitro ADME; details: for butyrate release/formation (in words): in vitro fermentation with human intestinal bacteria; for x-fold increase in the butyrate concentration in the fermentation medium in comparison to the nonesterified carbohydrate or carbohydrate polyol: in vitro fermentation; for increase of the butyrate in the fermentation broths: after a short fermentation time
Method: It was investigated in in vitro fermentation experiments with intestinal bacteria of the human large intestine whether butyric acid esters listed above are hydrolyzed and metabolized by bacteria of the large intestine or their enzymes and butyrate is released in the […]. The following medium was used for in vitro fermentation experiments: [table] 9 ml of the […] medium described above were treated with 0.5% (w/v) of the butyric acid ester to be tested and 0.2% (w/v) of taurocholic acid. This medium was subsequently inoculated with 1 ml of a 10% strength feces suspension (mixed feces of three subjects) in anaerobic 50 mmol/l phosphate buffer, pH 7.0, to which 0.5 g/l of cysteine/HCl had been added as a reductant. Hungate tubes were incubated at 37° C. with shaking for 72 h, samples were taken at different times and these were investigated for short-chain fatty acids, lactic acid and pH. The extent of the metabolization of the test substances was carried out by means of the determination of the release of butyrate.

[2] = oral administration / uptake via food; cited from earlier work
colon cancer = details: orally administered; cited from earlier work
[3] = 0.5% (w/v) substrate, human feces suspension, 37° C., 72 h

Tributyrylxylitol
g of butyrate/g of substrate [1, 3]: 0.6 g of butyrate/g of substrate | butyrate release/formation (in words) [1]: Large amounts of butyrate were also released | x-fold increase in the butyrate concentration in the fermentation medium in comparison to the nonesterified carbohydrate or carbohydrate polyol ([1]; 72 h): 2.2 x-fold

CCCC(=O)OCC(COC(=O)CCC)OC(=O)CCC [tributyrin]
cleavage / absorption in the small intestine [2]: rapidly cleaved in the anterior small intestine | activity in the prevention of colon cancer (colon cancer): inactive

Heptabutyryldiacetylisomalt
g of butyrate/g of substrate [1, 3]: 0.1 g of butyrate/g of substrate | g of butyrate/g of substrate ([1]; 0.5% (w/v) substrate, human feces suspension, 37° C., 72 h, listed as heptabutyryldiacetylisomalt): about 0.1 g of butyrate/g of substrate | x-fold increase in the butyrate concentration in the fermentation medium in comparison to the nonesterified carbohydrate or carbohydrate polyol ([1]; 72 h): 0.4 x-fold

Tetrabutyrylsorbitol
g of butyrate/g of substrate [1, 3]: 0.7 g of butyrate/g of substrate | increase of the butyrate in the fermentation broths [1]: strong increase | butyrate release/formation (in words) [1]: high butyrate formation | x-fold increase in the butyrate concentration in the fermentation medium in comparison to the nonesterified carbohydrate or carbohydrate polyol ([1]; 72 h): 2.7 x-fold | x-fold increase in the butyrate concentration in the fermentation medium in comparison to the nonesterified carbohydrate or carbohydrate polyol ([1]; 72 h, listed as tetrabutyrylsorbitol): more than twofold

Pentabutyrylxylitol
g of butyrate/g of substrate [1, 3]: 0.4 g of butyrate/g of substrate | butyrate release/formation (in words) [1]: Large amounts of butyrate were also released | x-fold increase in the butyrate concentration in the fermentation medium in comparison to the nonesterified carbohydrate or carbohydrate polyol ([1]; 72 h): 1.5 x-fold

Hexabutyrylsorbitol
g of butyrate/g of substrate [1, 3]: 0.2 g of butyrate/g of substrate | x-fold increase in the butyrate concentration in the fermentation medium in comparison to the nonesterified carbohydrate or carbohydrate polyol ([1]; 72 h): 0.8 x-fold

Tetrabutyrylxylitol
g of butyrate/g of substrate [1, 3]: 0.7 g of butyrate/g of substrate | butyrate release/formation (in words) [1]: high butyrate formation | x-fold increase in the butyrate concentration in the fermentation medium in comparison to the nonesterified carbohydrate or carbohydrate polyol ([1]; 72 h): 2.5 x-fold | x-fold increase in the butyrate concentration in the fermentation medium in comparison to the nonesterified carbohydrate or carbohydrate polyol ([1]; 72 h, listed as tetrabutyrylxylitol): more than two-fold

Isomalt [reference compound]
g of butyrate/g of substrate [1, 3]: 0.2 g of butyrate/g of substrate | g of butyrate/g of substrate ([1]; 0.5% (w/v) substrate, human feces suspension, 37° C., 72 h, listed as isomalt): approximately 0.2 g of butyrate/g of substrate

Octabutyrylisomalt
g of butyrate/g of substrate [1, 3]: 0.1 g of butyrate/g of substrate | g of butyrate/g of substrate ([1]; 0.5% (w/v) substrate, human feces suspension, 37° C., 72 h, listed as octabutyrylisomalt): about 0.1 g of butyrate/g of substrate | x-fold increase in the butyrate concentration in the fermentation medium in comparison to the nonesterified carbohydrate or carbohydrate polyol ([1]; 72 h): 0.5 x-fold

Pentabutyrylisomalt
g of butyrate/g of substrate [1, 3]: 0.2 g of butyrate/g of substrate | x-fold increase in the butyrate concentration in the fermentation medium in comparison to the nonesterified carbohydrate or carbohydrate polyol ([1]; 72 h): 1.3 x-fold

CCCC(=O)O [butyrate, butyric acid]
cleavage / absorption in the small intestine [2]: rapidly and completely absorbed in the small intestine

Tetrabutyryldiacetylsorbitol
g of butyrate/g of substrate [1]: 0.3 g of butyrate/g of substrate

Tributyrylsorbitol
g of butyrate/g of substrate [1, 3]: 0.7 g of butyrate/g of substrate | increase of the butyrate in the fermentation broths [1]: strong increase | butyrate release/formation (in words) [1]: high butyrate formation | x-fold increase in the butyrate concentration in the fermentation medium in comparison to the nonesterified carbohydrate or carbohydrate polyol ([1]; 72 h): 2.8 x-fold | x-fold increase in the butyrate concentration in the fermentation medium in comparison to the nonesterified carbohydrate or carbohydrate polyol ([1]; 72 h, listed as tributyrylsorbitol): more than twofold
